A value given as a limit tells only on which side of the number the result lay.

This is an account of results in patent US20050176584A1, “Mehtod for high throughput screening of plant growth regulator” (Korea Research Institute of Bioscience and Biotechnology, priority 2002, published 2005).

The test system of test [1] is Nicotiana tabacum cv. (BY4) photomixotrophic cells. Kind of test: TTC analysis of growth inhibition, tobacco photomixotrophic cells. It is filed as cell-based. As to the method: As Nicotiana tabacum cv. (BY4) photomixotrophic cells, the cells developed as NaCl resistance cells by Cha et al. (Cha et al., Korean J Bot, -36: 113-120, 1993) were used. For the culture of the above cells, MS minimal medium where 0.7 mg/l of 2,4-D and 0.03 mg/l of kinetin were added was used. 2 g of Nicotiana tabacum cv. […] The cells were sub-cultured at intervals of 14 days. The investigation procedure of cell viability in a 96 microwell plate of the present invention is precisely explained as follows. 1) Treating 150 μl of TTC solution into each well wherein cells are being cultured. 2) Five hours after treating TTC, removing the solution in wells with a 8-channel multi-pipette. 3) Adding 150 μl of 95% ethanol to the remaining cells of each well, and then reacting thereof at 60° C. for 1 hour. 4) After reaction finished, transferring the reacting solution into a new 96 well plate. 5) Measuring the optical density of the well plate at 490 nm wave length with a high throughput screening (HTS) reader. The explained method of the present invention is called high throughput screening. […] Oryza sativa L. cv (Taebaegbyeo) heterotrophic cells used in this experiment were developed from premature embryo (Korean J Plant Tissue Culture, 18: 209-214, 1991).

Test [2] concerns Marchantia polymorpha L. photomixotrophic cells. As to the kind of experiment: TTC high throughput screening of cell growth in microwell plate. The format is cell-based. The note with it: for growth inhibition activities (IC50) to Marchantia polymorpha L. photomixotrophic cells: TTC analysis; for effect of natural compounds on cell growth, in words: 1 ppm.
Test [3] relates to Oryza sativa L. cv (Taebaegbyeo) heterotrophic cells. As to the kind of experiment: TTC analysis of growth inhibition, rice heterotrophic cells. The format is cell-based. The note with it: for growth inhibition activities (IC50) to Oryza sativa L. cv (Taebaegbyeo) heterotrophic cells: TTC analysis; for growth inhibiting activity to non-photomixotrophic (heterotrophic) cells, in words: 10 ppm. As to the method:
Other culture conditions were same as those for Marchantia polymorpha L. photomixotrophic cell culture. The investigation procedure of cell viability in a 96 microwell plate of the present invention is precisely explained as follows. 1) Treating 150 μl of TTC solution into each well wherein cells are being cultured. 2) Five hours after treating TTC, removing the solution in wells with a 8-channel multi-pipette. 3) Adding 150 μl of 95% ethanol to the remaining cells of each well, and then reacting thereof at 60° C. for 1 hour. 4) After reaction finished, transferring the reacting solution into a new 96 well plate. 5) Measuring the optical density of the well plate at 490 nm wave length with a high throughput screening (HTS) reader. The explained method of the present invention is called high throughput screening. […] Oryza sativa L. cv (Taebaegbyeo) heterotrophic cells used in this experiment were developed from premature embryo (Korean J Plant Tissue Culture, 18: 209-214, 1991).

The next test deals with Lemna paucicostata. As to the kind of experiment: Lemna paucicostata growth inhibition in 24 well plate. The note with it: for inhibition at 31 ppm: Lemna aequinoctialis, 120 h, read-out: Lemna paucicostata (% activity).
Setting [4] is: Marchantia polymorpha, natural compounds, final concentration 1 ppm, + inhibiting, − promoting.

As to `CCOC(=O)[C@@H](C)Oc1ccc(Oc2nc3ccc(Cl)cc3o2)cc1` [Phenoxapro-P-ethyl], the “growth inhibition activities (IC50) to Nicotiana tabacum cv. (BY4) photomixotrophic cells” value in test [1] is reported as 4.58 ppm. Further, the “growth inhibition activities (IC50) to Marchantia polymorpha L. photomixotrophic cells” value in test [2] (96 well plate) is listed as 0.70 ppm. Besides, the “growth inhibition activities (IC50) to Oryza sativa L. cv (Taebaegbyeo) heterotrophic cells” value in test [3] was found to be 6.47 ppm.

For `Oc1ccc(O)cc1` [Hydroquinone], in test [2] (setting [4]), the inhibition at 1 ppm was determined as 15%. In addition, in the test with Lemna paucicostata, the inhibition at 31 ppm is 0%.

Consider `COc1cc(Oc2ccc(Cl)cc2Cl)ccc1[N+](=O)[O-]` [Chloromethoxynil], for which the “growth inhibition activities (IC50) to Nicotiana tabacum cv. (BY4) photomixotrophic cells” value in test [1] came out at 0.193 ppm. For the same molecule, in test [2] (96 well plate), the “growth inhibition activities (IC50) to Marchantia polymorpha L. photomixotrophic cells” value was 0.076 ppm. For the same molecule, in test [3], the “growth inhibiting activity to non-photomixotrophic (heterotrophic) cells, in words” value is on record as “low growth inhibiting activity or almost none” and the “growth inhibition activities (IC50) to Oryza sativa L. cv (Taebaegbyeo) heterotrophic cells” value is recorded as >10 ppm.

Regarding `O=c1ccc2ccccc2o1` [Coumarin], the inhibition at 1 ppm in test [2] (setting [4]) was determined as 33%. Also, the inhibition at 31 ppm with Lemna paucicostata is 80%.

For `CON(C)C(=O)Nc1ccc(Cl)c(Cl)c1` [Linurone], in test [1], the “growth inhibition activities (IC50) to Nicotiana tabacum cv. (BY4) photomixotrophic cells” value is >10 ppm. For the same molecule, the “growth inhibition activities (IC50) to Marchantia polymorpha L. photomixotrophic cells” value in test [2] (96 well plate) was 0.244 ppm. The “growth inhibition activities (IC50) to Oryza sativa L. cv (Taebaegbyeo) heterotrophic cells” value in test [3] was determined as 7.07 ppm.

Turning to `COCC(=O)OC(c1ncccc1S(=O)(=O)NC(=O)Nc1nc(OC)cc(OC)n1)C(C)F` (stereo not shown) [LGC-42153], the “growth inhibition activities (IC50) to Nicotiana tabacum cv. (BY4) photomixotrophic cells” value in test [1] was found to be 0.0022 ppm. For the same molecule, the “growth inhibition activities (IC50) to Marchantia polymorpha L. photomixotrophic cells” value in test [2] (96 well plate) is recorded as 0.0011 ppm. The “growth inhibition activities (IC50) to Oryza sativa L. cv (Taebaegbyeo) heterotrophic cells” value in test [3] worked out at 1.793 ppm.

`CC(Oc1ccc2ccccc2c1)C(=O)Nc1ccccc1` (stereo not shown) [Naproanilide]: in test [1], the “growth inhibition activities (IC50) to Nicotiana tabacum cv. (BY4) photomixotrophic cells” value was 0.0019 ppm. For the same molecule, the “growth inhibition activities (IC50) to Marchantia polymorpha L. photomixotrophic cells” value in test [2] (96 well plate) is 0.054 ppm. In addition, the “growth inhibition activities (IC50) to Oryza sativa L. cv (Taebaegbyeo) heterotrophic cells” value in test [3] amounted to 6.69 ppm.

For `CC(C)Oc1cc(-n2nc(C(C)(C)C)oc2=O)c(Cl)cc1Cl` [Oxadiazone], in test [1], the “growth inhibition activities (IC50) to Nicotiana tabacum cv. (BY4) photomixotrophic cells” value came to 0.39 ppm. The “growth inhibition activities (IC50) to Marchantia polymorpha L. photomixotrophic cells” value in test [2] (96 well plate) is given as 0.03 ppm. In addition, the “growth inhibition activities (IC50) to Oryza sativa L. cv (Taebaegbyeo) heterotrophic cells” value in test [3] was found to be 6.88 ppm.

As to `COc1cc2ccc(=O)oc2cc1O` [Scopoletin], the inhibition at 1 ppm in test [2] (setting [4]) came to 16%. In the test with Lemna paucicostata, the inhibition at 31 ppm was 0%.

`COc1cc(C(=O)O)cc(OC)c1O` [Syringic acid]: the inhibition at 1 ppm in test [2] (setting [4]) was found to be 16%. Also, the inhibition at 31 ppm in the test on Lemna paucicostata turned out to be 0%.

On to `CC(C)C1(C)N=C(c2ncccc2C(=O)O)NC1=O` (stereo not shown) [Amazapyr], for which the “growth inhibition activities (IC50) to Nicotiana tabacum cv. (BY4) photomixotrophic cells” value in test [1] is 0.018 ppm. Further, in test [2] (96 well plate), the “growth inhibition activities (IC50) to Marchantia polymorpha L. photomixotrophic cells” value was 0.35 ppm. Besides, the “growth inhibition activities (IC50) to Oryza sativa L. cv (Taebaegbyeo) heterotrophic cells” value in test [3] stood at 0.269 ppm.

In the case of `O=C(O)c1cc(O)ccc1O` [Gentistic acid], the “Marchantia polymorpha L. photomixotrophic cells (% activity)” value in test [2] (natural compounds, final concentration 1 ppm, + inhibiting, − promoting) was determined as 9%. Also, the “Lemna paucicostata (% activity)” value with Lemna paucicostata (final concentration 31 ppm, 5 days after treating) is recorded as 0%.

For `COc1cc(/C=C/C(=O)O)ccc1O` [Ferulic acid], in test [2], the “effect of natural compounds on cell growth, in words” value (from here on “effect of natural compounds”) is on record as “growth promoting activity”. Besides, the inhibition at 1 ppm in test [2] (setting [4]) is -35%. Further, in the test with Lemna paucicostata, the inhibition at 31 ppm was determined as 20%.

Take `O=C(O)c1ccccc1` [Benzoic acid]: the inhibition at 31 ppm in the test with Lemna paucicostata came to 10%.

As for `CCOC(=O)c1ccc(O)c(O)c1` [Protocatechuic acid ethyl ester], the inhibition at 1 ppm in test [2] (setting [4]) worked out at 22%. Further, in the test with Lemna paucicostata, the inhibition at 31 ppm stood at 70%.

As to `CSC(=O)c1c(C(F)F)nc(C(F)(F)F)c(C(=O)SC)c1CC(C)C` [Dithiopyr], in test [1], the “growth inhibition activities (IC50) to Nicotiana tabacum cv. (BY4) photomixotrophic cells” value is listed as 0.141 ppm. Moreover, the “growth inhibition activities (IC50) to Marchantia polymorpha L. photomixotrophic cells” value in test [2] (96 well plate) is reported as 0.048 ppm. The “growth inhibition activities (IC50) to Oryza sativa L. cv (Taebaegbyeo) heterotrophic cells” value in test [3] was determined as 0.613 ppm.

With `O=C(O)/C=C/c1ccc(O)cc1` [p-Coumaric acid], in test [2] (setting [4]), the inhibition at 1 ppm turned out to be 17%. In addition, the inhibition at 31 ppm in the test on Lemna paucicostata turned out to be 30%.

As for `O=c1oc2ccccc2c(O)c1Cc1c(O)c2ccccc2oc1=O` [Dicumarol], the “effect of natural compounds” value in test [2] is reported as “growth promoting activity”. Moreover, in test [2] (setting [4]), the inhibition at 1 ppm was -31%. Besides, the inhibition at 31 ppm with Lemna paucicostata turned out to be 30%.

`O=C(O)/C=C/c1ccc(O)c(O)c1` [Caffeic acid]: in test [2] (setting [4]), the inhibition at 1 ppm worked out at 21%. Besides, the inhibition at 31 ppm in the test with Lemna paucicostata is 30%.

In the case of `O=C(Nc1ccc(F)cc1F)c1cccnc1Oc1cccc(C(F)(F)F)c1` [Diflufenican], the “growth inhibition activities (IC50) to Nicotiana tabacum cv. (BY4) photomixotrophic cells” value in test [1] is recorded as 4.67 ppm. Also, the “growth inhibition activities (IC50) to Marchantia polymorpha L. photomixotrophic cells” value in test [2] (96 well plate) is 0.031 ppm. In addition, in test [3], the “growth inhibiting activity to non-photomixotrophic (heterotrophic) cells, in words” value is given as “low growth inhibiting activity or almost none” and the “growth inhibition activities (IC50) to Oryza sativa L. cv (Taebaegbyeo) heterotrophic cells” value was >10 ppm.

Regarding `COc1cc(OC)nc(Oc2cccc(Oc3nc(OC)cc(OC)n3)c2C(=O)ON=C(c2ccccc2)c2ccccc2)n1` [Pyribenzoxim], the “growth inhibition activities (IC50) to Nicotiana tabacum cv. (BY4) photomixotrophic cells” value in test [1] is reported as 0.0026 ppm. Besides, the “growth inhibition activities (IC50) to Marchantia polymorpha L. photomixotrophic cells” value in test [2] (96 well plate) was determined as 0.0092 ppm. In addition, the “growth inhibition activities (IC50) to Oryza sativa L. cv (Taebaegbyeo) heterotrophic cells” value in test [3] worked out at 7.83 ppm.

On to `O=C(O)c1cc(O)c(O)c(O)c1` [Gallic acid], for which, in test [2] (setting [4]), the inhibition at 1 ppm stood at 8%. In addition, the inhibition at 31 ppm in the test with Lemna paucicostata came to 0%.

In the case of `CCNc1nc(Cl)nc(NC(C)C)n1` [Atrazine], the “growth inhibition activities (IC50) to Nicotiana tabacum cv. (BY4) photomixotrophic cells” value in test [1] is reported as 0.18 ppm. The intracellular formazan content entry in test [2] (12 well plate, different concentrations, 1 and 5 hours after TTC) is recorded as “decreased dose-dependently”. Also, the “content that can inhibit cell growth upto about 50%” value in test [2] (96 well plate, TTC 5 hours) is reported as 0.18 ppm. The IC50 in test [2] (Marchantia polymorpha, 96 well plate, TTC 5 hours, read-out: content that can inhibit cell growth upto about 50%) is 680 nM. Besides, in test [2] (96 well plate), the “growth inhibition activities (IC50) to Marchantia polymorpha L. photomixotrophic cells” value was 0.21 ppm. Further, in test [3], the “growth inhibiting activity to non-photomixotrophic (heterotrophic) cells, in words” value is recorded as “low growth inhibiting activity or almost none” and the “growth inhibition activities (IC50) to Oryza sativa L. cv (Taebaegbyeo) heterotrophic cells” value is >10 ppm.

Regarding `O=C1COc2ccccc21` [3-Coumaranone], in test [2], the “effect of natural compounds” value is reported as “growth promoting activity”. Moreover, in test [2] (setting [4]), the inhibition at 1 ppm was -18%. In the test with Lemna paucicostata, the inhibition at 31 ppm turned out to be 0%.

`CCC(=O)Nc1ccc(Cl)c(Cl)c1` [Propanil]: the “growth inhibition activities (IC50) to Nicotiana tabacum cv. (BY4) photomixotrophic cells” value in test [1] came to 5.83 ppm. The “growth inhibition activities (IC50) to Marchantia polymorpha L. photomixotrophic cells” value in test [2] (96 well plate) is listed as 0.037 ppm. For the same molecule, in test [3], the “growth inhibition activities (IC50) to Oryza sativa L. cv (Taebaegbyeo) heterotrophic cells” value is given as 8.49 ppm.

For `O=c1ccc2ccc(O)cc2o1` [Umbelliferone], the inhibition at 1 ppm in test [2] (setting [4]) came to 6%. Also, the inhibition at 31 ppm in the test with Lemna paucicostata stood at 40%.

As to `CCOC(=O)c1cnn(C)c1S(=O)(=O)NC(=O)Nc1nc(OC)cc(OC)n1` [Prazolsulfuron-ethyl], in test [1], the “growth inhibition activities (IC50) to Nicotiana tabacum cv. (BY4) photomixotrophic cells” value is 0.001 ppm. In addition, in test [2] (96 well plate), the “growth inhibition activities (IC50) to Marchantia polymorpha L. photomixotrophic cells” value is 0.0012 ppm. For the same molecule, in test [3], the “growth inhibition activities (IC50) to Oryza sativa L. cv (Taebaegbyeo) heterotrophic cells” value worked out at 0.066 ppm.

`COc1cc(C(=O)O)ccc1O` [Vanillic acid]: the inhibition at 1 ppm in test [2] (setting [4]) came to 10%. In addition, the inhibition at 31 ppm with Lemna paucicostata worked out at 10%.

Take `O=C(O)/C=C/c1ccccc1O` [o-Coumaric acid]: the inhibition at 1 ppm in test [2] (setting [4]) was 32%. For the same molecule, the inhibition at 31 ppm in the test on Lemna paucicostata is 30%.
